According to ChEMBL document CHEMBL1933040, “The novel agent ophiobolin O induces apoptosis and cell cycle arrest of MCF-7 cells through activation of MAPK signaling pathways” (Bioorg Med Chem Lett, 2012):
The source made the active and inactive calls. The calls are words filed in the database; no cut-off is given here.

What was measured:
MCF7 [1] = test: Induction of apoptosis in human MCF7 cells assessed as change in Bax expression level at 17.86 uM after 12 to 48 hrs by Western blot analysis; assay type: functional, cell-based
MCF7 [2] = test: Induction of apoptosis in human MCF7 cells assessed as change in Bax/Bcl2 ratio at 17.86 uM by Western blot analysis; assay type: functional, cell-based; details: TDE = time-dependent effect
MCF7 [3] = test: Induction of apoptosis in human MCF7 cells at 17.86 uM after 48 hrs by using Annexin V-FITC and propidium iodide staining by flow cytometry in presence of JNK inhibitor SP600125; assay type: functional, cell-based
[4] = target: T1, Mitogen-activated protein kinase; ERK1/ERK2 (Homo sapiens) (UniProt P27361+P28482); test: Activation of ERK1/2 phosphorylation in human MCF7 cells at 17.86 uM after 48 hrs by Western blot analysis in presence of ERK inhibitor U0126; assay type: cell-based
[5] = target: T2, MAP kinase p38 (Homo sapiens) (UniProt O15264+Q15759+Q16539+P53778); test: Activation of MAPK p38 phosphorylation in human MCF7 cells at 17.86 uM after 48 hrs by Western blot analysis in presence of p38 inhibitor SB203580; assay type: cell-based
MCF7 [6] = test: Induction of apoptosis in human MCF7 cells assessed as increase of Bcl-2 phosphorylation at Ser70 at 17.86 uM after 12 hrs by Western blot analysis in presence of JNK inhibitor SP600125; assay type: functional, cell-based
MCF7 [7] = test: Induction of apoptosis in human MCF7 cells assessed as change in Bcl-2 protein level at 17.86 uM after 12 hrs by Western blot analysis in presence of JNK inhibitor SP600125; assay type: functional, cell-based
MCF7 [8] = test: Effect on total ERK 1/2 protein level in human MCF7 cells at 17.86 uM after 12 to 48 hrs by Western blot analysis; assay type: functional, cell-based
MCF7 [9] = test: Effect on total MAPK p38 protein level in human MCF7 cells at 17.86 uM after 12 to 48 hrs by Western blot analysis; assay type: functional, cell-based
MCF7 [10] = test: Effect on total JNK protein level in human MCF7 cells at 17.86 uM after 12 to 48 hrs by Western blot analysis; assay type: functional, cell-based
MCF7 [11] = test: Cytotoxicity against human MCF7 cells after 48 hrs by MTT assay; assay type: functional, cell-based
HUVEC = test: Cytotoxicity against human HUVEC cells after 48 hrs by MTT assay; assay type: cell-based
MCF7 [12] = test: Cell cycle arrest in human MCF7 cells assessed as accumulation at G0/G1 phase at 17.86 uM after 12 hrs by flow cytometry (reference value: 39.34 +/- 3.37%); assay type: functional
MCF7 [13] = test: Cell cycle arrest in human MCF7 cells assessed as accumulation at G0/G1 phase at 17.86 uM after 24 hrs by flow cytometry (reference value: 39.34 +/- 3.37%); assay type: functional
MCF7 [14] = test: Cell cycle arrest in human MCF7 cells assessed as accumulation at G0/G1 phase at 17.86 uM after 48 hrs by flow cytometry (reference value: 39.34 +/- 3.37%); assay type: functional
MCF7 [15] = test: Cell cycle arrest in human MCF7 cells assessed as accumulation at G0/G1 phase at 17.86 uM by flow cytometry; assay type: functional, cell-based; details: TDE = time-dependent effect
MCF7 [16] = test: Induction of apoptosis in human MCF7 cells at 17.86 uM using Annexin V-FITC and propidium iodide staining by flow cytometry; assay type: functional, cell-based; details: TDE = time-dependent effect
MCF7 [17] = test: Induction of apoptosis in human MCF7 cells at 17.86 uM after 48 hrs using Annexin V-FITC and propidium iodide staining by flow cytometry (reference value: 3.71 +/- 0.63%); assay type: functional
[18] = target: T1, Mitogen-activated protein kinase; ERK1/ERK2 (Homo sapiens); test: Activation of ERK1/2 phosphorylation in human MCF7 cells at 17.86 uM after 24 hrs by Western blot analysis relative to control; assay type: cell-based
[19] = Activation of JNK phosphorylation in human MCF7 cells at 17.86 uM after 24 hrs by Western blot analysis; assay type: cell-based
[20] = target: T2, MAP kinase p38 (Homo sapiens); test: Activation of MAPK p38 phosphorylation in human MCF7 cells at 17.86 uM after 12 hrs by Western blot analysis; assay type: cell-based
[21] = target: T2, MAP kinase p38 (Homo sapiens); test: Activation of MAPK p38 phosphorylation in human MCF7 cells at 17.86 uM after 36 to 48 hrs by Western blot analysis; assay type: cell-based
MCF7 [22] = test: Induction of apoptosis in human MCF7 cells assessed as decrease in Bcl2 expression level at 17.86 uM after 12 to 48 hrs by Western blot analysis; assay type: functional, cell-based
MCF7 [23] = test: Induction of apoptosis in human MCF7 cells assessed as increase in Bim expression level at 17.86 uM after 12 to 48 hrs by Western blot analysis; assay type: functional, cell-based

T1 sequence (P27361 whole entry, looked up): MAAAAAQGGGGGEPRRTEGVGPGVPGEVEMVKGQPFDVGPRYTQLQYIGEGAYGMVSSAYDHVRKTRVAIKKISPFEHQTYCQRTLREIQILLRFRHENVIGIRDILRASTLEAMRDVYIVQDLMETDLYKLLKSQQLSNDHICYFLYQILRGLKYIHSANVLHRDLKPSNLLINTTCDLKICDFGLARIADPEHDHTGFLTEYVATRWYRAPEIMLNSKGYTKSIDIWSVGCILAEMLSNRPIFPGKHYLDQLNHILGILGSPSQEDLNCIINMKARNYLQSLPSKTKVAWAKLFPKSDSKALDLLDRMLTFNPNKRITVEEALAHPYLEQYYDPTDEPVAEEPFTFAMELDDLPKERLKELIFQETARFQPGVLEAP
T1 sequence (P28482 whole entry, looked up): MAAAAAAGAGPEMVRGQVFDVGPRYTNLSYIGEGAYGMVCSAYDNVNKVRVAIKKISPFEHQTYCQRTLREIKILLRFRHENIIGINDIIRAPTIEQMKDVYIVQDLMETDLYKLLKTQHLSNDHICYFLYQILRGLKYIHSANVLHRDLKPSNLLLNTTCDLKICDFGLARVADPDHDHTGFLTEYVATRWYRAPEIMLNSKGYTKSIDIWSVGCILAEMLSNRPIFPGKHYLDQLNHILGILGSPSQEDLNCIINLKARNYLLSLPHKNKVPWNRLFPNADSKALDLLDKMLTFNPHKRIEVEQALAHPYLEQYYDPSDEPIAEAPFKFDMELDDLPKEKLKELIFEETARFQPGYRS

CO[C@H]1O[C@@]2(OC)C[C@@](C)(O)[C@H]3C[C@@]4(C)CC[C@H]([C@@H](C)/C=C\C=C(C)C)[C@@H]4C/C=C/1[C@H]32 [OPHIOBOLIN O]
Activity (MCF7 [1]): inactive
Activity (MCF7 [2]): tde
Activity (MCF7 [3]): inactive
Activity [4]: inactive
Activity [5]: inactive
Activity (MCF7 [6]): Active
Activity (MCF7 [7]): Active
Activity (MCF7 [8]): Active
Activity (MCF7 [9]): Active
Activity (MCF7 [10]): Active
Activity (MCF7 [11]): Dose-dependent effect
IC50 (MCF7 [11]; MCF7, 48 h): 17.9 µM
Activity (HUVEC): Non-toxic
Activity (MCF7 [12]): 44.79%
Activity (MCF7 [13]): 60.1%
Activity (MCF7 [14]): 78.54%
Activity (MCF7 [15]): tde
Activity (MCF7 [16]): tde
Activity (MCF7 [17]): 47.18%
Activity [18]: Active
Activity [19]: Active
Activity [20]: Active
Activity [21]: Active
Activity (MCF7 [22]): Active
Activity (MCF7 [23]): Active
